Assay results as given in PMC11915372, “Identification of a Series Containing a Pentafluorophenyl Moiety That Targets Pks13 to Inhibit Growth of Mycobacterium tuberculosis” (ACS Infectious Diseases, 2025).
Where “and” joins values, the source holds several entries; their conditions need not be identical. Identical values can stand only once.

System: H37Rv cells
Format: cell-based, Mycobacterium tuberculosis

`CN(C)c1ncnc2sc(-c3c(F)c(F)c(F)c(F)c3F)nc12.Cl` [Compound 1, CN(C)c1ncnc2sc(nc12)-c1c(c(c(c(c1F)F)F)F)F] was tested, and the “frequency of resistant colonies” value was 10^–7 and 10^–8.
